# Reference: ChEMBL document CHEMBL5584267, “Discovery of the first selective, small-molecule GFRα2/3 inhibitors through DNA-encoded library technology” (Bioorg Med Chem Lett, 2024)
# Molecular target: T1, Proto-oncogene tyrosine-protein kinase receptor Ret (Homo sapiens, UniProt P07949)
# Experiment: Inhibition of RET (unknown origin) assessed as maximal efficacy relative to control
# T1 sequence (P07949 whole entry): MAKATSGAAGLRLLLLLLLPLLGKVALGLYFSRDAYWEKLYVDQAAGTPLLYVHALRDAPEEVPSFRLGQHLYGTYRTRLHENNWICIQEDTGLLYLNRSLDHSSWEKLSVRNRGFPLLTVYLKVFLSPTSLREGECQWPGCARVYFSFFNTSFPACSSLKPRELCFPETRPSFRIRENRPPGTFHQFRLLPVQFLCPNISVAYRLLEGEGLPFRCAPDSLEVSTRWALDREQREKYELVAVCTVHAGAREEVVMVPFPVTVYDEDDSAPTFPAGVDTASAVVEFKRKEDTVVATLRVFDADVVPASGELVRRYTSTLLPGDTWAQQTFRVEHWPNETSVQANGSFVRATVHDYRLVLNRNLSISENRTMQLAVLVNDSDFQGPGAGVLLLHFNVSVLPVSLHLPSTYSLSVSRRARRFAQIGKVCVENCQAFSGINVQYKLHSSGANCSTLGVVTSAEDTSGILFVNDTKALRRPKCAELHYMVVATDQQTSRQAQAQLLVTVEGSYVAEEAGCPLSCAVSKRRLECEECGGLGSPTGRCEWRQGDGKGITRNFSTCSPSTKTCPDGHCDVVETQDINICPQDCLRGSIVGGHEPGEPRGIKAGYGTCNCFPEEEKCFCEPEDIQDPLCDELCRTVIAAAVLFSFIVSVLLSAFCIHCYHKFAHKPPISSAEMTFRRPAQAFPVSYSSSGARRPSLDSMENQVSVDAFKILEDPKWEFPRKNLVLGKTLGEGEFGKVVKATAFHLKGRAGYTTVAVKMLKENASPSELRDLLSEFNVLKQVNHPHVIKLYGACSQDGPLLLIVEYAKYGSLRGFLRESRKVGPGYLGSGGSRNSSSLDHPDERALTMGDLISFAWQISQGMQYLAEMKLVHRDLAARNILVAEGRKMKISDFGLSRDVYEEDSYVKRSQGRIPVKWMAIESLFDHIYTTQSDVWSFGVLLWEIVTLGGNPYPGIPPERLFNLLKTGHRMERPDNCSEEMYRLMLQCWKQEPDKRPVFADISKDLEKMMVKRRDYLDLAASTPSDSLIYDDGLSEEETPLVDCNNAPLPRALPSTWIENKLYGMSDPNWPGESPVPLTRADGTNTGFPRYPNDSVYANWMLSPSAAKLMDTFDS
row,Compound,Emax
1,CNC(=O)[C@H](NC(=O)Cc1cccc(O[C@@H]2Cc3ccc(-c4cnc(Nc5ccccc5)nc4)cc3C2)c1)C1CCCCC1 (racemic),0%
2,O=C(O)Cc1cccc(O[C@H]2CCc3cc(-c4cnc(Nc5ccccc5)nc4)ccc32)c1,93%
3,NC(=O)Cc1cccc(O[C@H]2CCc3cc(-c4cnc(Nc5ccccc5)nc4)ccc32)c1,0%
4,CNC(=O)[C@H](NC(=O)Cc1cccc(O[C@H]2CCc3ccccc32)c1)C1CCCCC1,0%
5,CNC(=O)[C@H](NC(=O)Cc1cccc(Oc2cnc(Nc3ccccc3)nc2)c1)C1CCCCC1,0%
6,CNC(=O)[C@H](NC(=O)Cc1cccc(O[C@H]2CCc3cc(-c4cnc(Nc5ccccc5)nc4)ccc32)c1)C1CCCCC1,0%
7,NC(=O)[C@H](NC(=O)Cc1cccc(O[C@H]2CCc3cc(-c4ncc(Nc5ccccc5)cn4)ccc32)c1)C1CCCCC1,68%
8,CNC(=O)[C@H](NC(=O)Cc1cccc(O[C@H]2CCc3cc(-c4cncc(Oc5ccccc5)c4)ccc32)c1)C1CCCCC1,0%

# Molecular target: T2, GDNF family receptor alpha-2 (Homo sapiens, UniProt O00451)
# T2 sequence (O00451 whole entry): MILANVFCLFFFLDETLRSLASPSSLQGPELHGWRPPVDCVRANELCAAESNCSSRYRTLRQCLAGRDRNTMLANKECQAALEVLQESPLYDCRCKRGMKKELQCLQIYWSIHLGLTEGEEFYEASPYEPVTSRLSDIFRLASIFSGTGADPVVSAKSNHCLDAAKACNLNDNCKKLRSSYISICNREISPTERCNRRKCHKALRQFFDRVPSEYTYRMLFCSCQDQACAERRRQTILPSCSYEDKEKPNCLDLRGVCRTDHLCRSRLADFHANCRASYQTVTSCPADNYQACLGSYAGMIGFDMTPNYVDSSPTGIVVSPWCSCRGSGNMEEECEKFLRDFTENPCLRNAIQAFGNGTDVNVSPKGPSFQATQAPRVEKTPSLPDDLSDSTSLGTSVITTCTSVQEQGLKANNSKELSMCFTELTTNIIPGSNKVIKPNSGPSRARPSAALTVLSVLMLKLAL
# Experiment: Inhibition of GFRalpha2 (unknown origin)
row,Compound,IC50
1,CNC(=O)[C@H](NC(=O)Cc1cccc(O[C@@H]2Cc3ccc(-c4cnc(Nc5ccccc5)nc4)cc3C2)c1)C1CCCCC1 (racemic),0.1 µM
2,O=C(O)Cc1cccc(O[C@H]2CCc3cc(-c4cnc(Nc5ccccc5)nc4)ccc32)c1,> 100 µM
3,NC(=O)Cc1cccc(O[C@H]2CCc3cc(-c4cnc(Nc5ccccc5)nc4)ccc32)c1,> 100 µM
4,CNC(=O)[C@H](NC(=O)Cc1cccc(O[C@H]2CCc3ccccc32)c1)C1CCCCC1,9.9 µM
5,CNC(=O)[C@H](NC(=O)Cc1cccc(Oc2cnc(Nc3ccccc3)nc2)c1)C1CCCCC1,> 100 µM
6,CNC(=O)[C@H](NC(=O)Cc1cccc(O[C@H]2CCc3cc(-c4cnc(Nc5ccccc5)nc4)ccc32)c1)C1CCCCC1,1 µM
7,NC(=O)[C@H](NC(=O)Cc1cccc(O[C@H]2CCc3cc(-c4ncc(Nc5ccccc5)cn4)ccc32)c1)C1CCCCC1,2.5 µM
8,CNC(=O)[C@H](NC(=O)Cc1cccc(O[C@H]2CCc3cc(-c4cncc(Oc5ccccc5)c4)ccc32)c1)C1CCCCC1,18 µM

# Molecular target: T3, GDNF family receptor alpha-3 (Homo sapiens, UniProt O60609)
# T3 sequence (O60609 whole entry): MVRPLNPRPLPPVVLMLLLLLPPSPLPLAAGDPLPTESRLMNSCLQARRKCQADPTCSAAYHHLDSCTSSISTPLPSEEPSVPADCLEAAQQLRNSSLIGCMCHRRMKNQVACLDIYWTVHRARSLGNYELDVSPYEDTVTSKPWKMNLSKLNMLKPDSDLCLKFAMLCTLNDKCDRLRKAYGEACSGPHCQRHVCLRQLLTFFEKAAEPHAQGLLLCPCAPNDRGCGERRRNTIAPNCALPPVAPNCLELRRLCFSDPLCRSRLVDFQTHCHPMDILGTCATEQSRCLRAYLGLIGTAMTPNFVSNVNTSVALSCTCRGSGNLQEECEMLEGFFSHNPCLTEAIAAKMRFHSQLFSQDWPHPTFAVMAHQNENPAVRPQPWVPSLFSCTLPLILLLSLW
# Experiment: Inhibition of GFRalpha3 (unknown origin)
row,Compound,IC50
1,CNC(=O)[C@H](NC(=O)Cc1cccc(O[C@@H]2Cc3ccc(-c4cnc(Nc5ccccc5)nc4)cc3C2)c1)C1CCCCC1 (racemic),0.2 µM
2,O=C(O)Cc1cccc(O[C@H]2CCc3cc(-c4cnc(Nc5ccccc5)nc4)ccc32)c1,2.8 µM
3,NC(=O)Cc1cccc(O[C@H]2CCc3cc(-c4cnc(Nc5ccccc5)nc4)ccc32)c1,> 100 µM
4,CNC(=O)[C@H](NC(=O)Cc1cccc(O[C@H]2CCc3ccccc32)c1)C1CCCCC1,9.1 µM
5,CNC(=O)[C@H](NC(=O)Cc1cccc(Oc2cnc(Nc3ccccc3)nc2)c1)C1CCCCC1,> 100 µM
6,CNC(=O)[C@H](NC(=O)Cc1cccc(O[C@H]2CCc3cc(-c4cnc(Nc5ccccc5)nc4)ccc32)c1)C1CCCCC1,0.7 µM
7,NC(=O)[C@H](NC(=O)Cc1cccc(O[C@H]2CCc3cc(-c4ncc(Nc5ccccc5)cn4)ccc32)c1)C1CCCCC1,1.1 µM
8,CNC(=O)[C@H](NC(=O)Cc1cccc(O[C@H]2CCc3cc(-c4cncc(Oc5ccccc5)c4)ccc32)c1)C1CCCCC1,26 µM

# Molecular target: T4, GDNF family receptor alpha-3 (Homo sapiens) (UniProt O60609)
# T4 sequence (whole entry): T3 sequence (O60609 whole entry)
# Experiment: Inhibition of GFRalpha3 (unknown origin) assessed as maximal efficacy relative to control
row,Compound,Emax
1,CNC(=O)[C@H](NC(=O)Cc1cccc(O[C@@H]2Cc3ccc(-c4cnc(Nc5ccccc5)nc4)cc3C2)c1)C1CCCCC1 (racemic),100%
2,O=C(O)Cc1cccc(O[C@H]2CCc3cc(-c4cnc(Nc5ccccc5)nc4)ccc32)c1,59%
3,NC(=O)Cc1cccc(O[C@H]2CCc3cc(-c4cnc(Nc5ccccc5)nc4)ccc32)c1,0%
4,CNC(=O)[C@H](NC(=O)Cc1cccc(O[C@H]2CCc3ccccc32)c1)C1CCCCC1,66%
5,CNC(=O)[C@H](NC(=O)Cc1cccc(Oc2cnc(Nc3ccccc3)nc2)c1)C1CCCCC1,0%
6,CNC(=O)[C@H](NC(=O)Cc1cccc(O[C@H]2CCc3cc(-c4cnc(Nc5ccccc5)nc4)ccc32)c1)C1CCCCC1,71%
7,NC(=O)[C@H](NC(=O)Cc1cccc(O[C@H]2CCc3cc(-c4ncc(Nc5ccccc5)cn4)ccc32)c1)C1CCCCC1,100%
8,CNC(=O)[C@H](NC(=O)Cc1cccc(O[C@H]2CCc3cc(-c4cncc(Oc5ccccc5)c4)ccc32)c1)C1CCCCC1,100%

# Molecular target: T1, Proto-oncogene tyrosine-protein kinase receptor Ret
# Experiment: Inhibition of RET (unknown origin)
row,Compound,IC50
1,CNC(=O)[C@H](NC(=O)Cc1cccc(O[C@@H]2Cc3ccc(-c4cnc(Nc5ccccc5)nc4)cc3C2)c1)C1CCCCC1 (racemic),> 100 µM
2,O=C(O)Cc1cccc(O[C@H]2CCc3cc(-c4cnc(Nc5ccccc5)nc4)ccc32)c1,2.3 µM
3,NC(=O)Cc1cccc(O[C@H]2CCc3cc(-c4cnc(Nc5ccccc5)nc4)ccc32)c1,> 100 µM
4,CNC(=O)[C@H](NC(=O)Cc1cccc(O[C@H]2CCc3ccccc32)c1)C1CCCCC1,> 100 µM
5,CNC(=O)[C@H](NC(=O)Cc1cccc(Oc2cnc(Nc3ccccc3)nc2)c1)C1CCCCC1,> 100 µM
6,CNC(=O)[C@H](NC(=O)Cc1cccc(O[C@H]2CCc3cc(-c4cnc(Nc5ccccc5)nc4)ccc32)c1)C1CCCCC1,> 100 µM
7,NC(=O)[C@H](NC(=O)Cc1cccc(O[C@H]2CCc3cc(-c4ncc(Nc5ccccc5)cn4)ccc32)c1)C1CCCCC1,0.8 µM
8,CNC(=O)[C@H](NC(=O)Cc1cccc(O[C@H]2CCc3cc(-c4cncc(Oc5ccccc5)c4)ccc32)c1)C1CCCCC1,> 100 µM

# Molecular target: T5, GDNF family receptor alpha-2 (Homo sapiens) (UniProt O00451)
# T5 sequence (whole entry): T2 sequence (O00451 whole entry)
# Experiment: Inhibition of GFRalpha2 (unknown origin) assessed as maximal efficacy relative to control
row,Compound,Emax
1,CNC(=O)[C@H](NC(=O)Cc1cccc(O[C@@H]2Cc3ccc(-c4cnc(Nc5ccccc5)nc4)cc3C2)c1)C1CCCCC1 (racemic),100%
2,O=C(O)Cc1cccc(O[C@H]2CCc3cc(-c4cnc(Nc5ccccc5)nc4)ccc32)c1,0%
3,NC(=O)Cc1cccc(O[C@H]2CCc3cc(-c4cnc(Nc5ccccc5)nc4)ccc32)c1,0%
4,CNC(=O)[C@H](NC(=O)Cc1cccc(O[C@H]2CCc3ccccc32)c1)C1CCCCC1,66%
5,CNC(=O)[C@H](NC(=O)Cc1cccc(Oc2cnc(Nc3ccccc3)nc2)c1)C1CCCCC1,0%
6,CNC(=O)[C@H](NC(=O)Cc1cccc(O[C@H]2CCc3cc(-c4cnc(Nc5ccccc5)nc4)ccc32)c1)C1CCCCC1,56%
7,NC(=O)[C@H](NC(=O)Cc1cccc(O[C@H]2CCc3cc(-c4ncc(Nc5ccccc5)cn4)ccc32)c1)C1CCCCC1,69%
8,CNC(=O)[C@H](NC(=O)Cc1cccc(O[C@H]2CCc3cc(-c4cncc(Oc5ccccc5)c4)ccc32)c1)C1CCCCC1,100%

# Molecular target: T6, GDNF family receptor alpha-1 (Homo sapiens, UniProt P56159)
# T6 sequence (P56159 whole entry): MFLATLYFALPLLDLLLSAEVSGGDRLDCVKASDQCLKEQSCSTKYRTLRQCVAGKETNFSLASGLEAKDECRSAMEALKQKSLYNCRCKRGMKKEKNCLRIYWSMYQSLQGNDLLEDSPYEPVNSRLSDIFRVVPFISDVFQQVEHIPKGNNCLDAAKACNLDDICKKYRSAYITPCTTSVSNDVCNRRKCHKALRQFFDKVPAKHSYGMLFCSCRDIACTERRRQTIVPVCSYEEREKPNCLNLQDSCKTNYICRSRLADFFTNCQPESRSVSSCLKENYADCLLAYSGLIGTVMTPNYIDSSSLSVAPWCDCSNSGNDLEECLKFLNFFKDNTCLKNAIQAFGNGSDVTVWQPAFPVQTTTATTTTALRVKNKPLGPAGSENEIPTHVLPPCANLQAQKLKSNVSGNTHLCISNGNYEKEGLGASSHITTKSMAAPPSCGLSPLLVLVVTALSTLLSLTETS
# Experiment: Inhibition of GFRalpha1 (unknown origin)
row,Compound,IC50
1,CNC(=O)[C@H](NC(=O)Cc1cccc(O[C@@H]2Cc3ccc(-c4cnc(Nc5ccccc5)nc4)cc3C2)c1)C1CCCCC1 (racemic),0.25 µM
2,O=C(O)Cc1cccc(O[C@H]2CCc3cc(-c4cnc(Nc5ccccc5)nc4)ccc32)c1,> 100 µM
3,NC(=O)Cc1cccc(O[C@H]2CCc3cc(-c4cnc(Nc5ccccc5)nc4)ccc32)c1,> 100 µM
4,CNC(=O)[C@H](NC(=O)Cc1cccc(O[C@H]2CCc3ccccc32)c1)C1CCCCC1,> 100 µM
5,CNC(=O)[C@H](NC(=O)Cc1cccc(Oc2cnc(Nc3ccccc3)nc2)c1)C1CCCCC1,> 100 µM
6,CNC(=O)[C@H](NC(=O)Cc1cccc(O[C@H]2CCc3cc(-c4cnc(Nc5ccccc5)nc4)ccc32)c1)C1CCCCC1,2.1 µM
7,NC(=O)[C@H](NC(=O)Cc1cccc(O[C@H]2CCc3cc(-c4ncc(Nc5ccccc5)cn4)ccc32)c1)C1CCCCC1,1 µM
8,CNC(=O)[C@H](NC(=O)Cc1cccc(O[C@H]2CCc3cc(-c4cncc(Oc5ccccc5)c4)ccc32)c1)C1CCCCC1,> 100 µM

# Molecular target: T7, GDNF family receptor alpha-1 (Homo sapiens) (UniProt P56159)
# T7 sequence (whole entry): T6 sequence (P56159 whole entry)
# Experiment: Inhibition of GFRalpha1 (unknown origin) assessed as maximal efficacy relative to control
row,Compound,Emax
1,CNC(=O)[C@H](NC(=O)Cc1cccc(O[C@@H]2Cc3ccc(-c4cnc(Nc5ccccc5)nc4)cc3C2)c1)C1CCCCC1 (racemic),86%
2,O=C(O)Cc1cccc(O[C@H]2CCc3cc(-c4cnc(Nc5ccccc5)nc4)ccc32)c1,0%
3,NC(=O)Cc1cccc(O[C@H]2CCc3cc(-c4cnc(Nc5ccccc5)nc4)ccc32)c1,0%
4,CNC(=O)[C@H](NC(=O)Cc1cccc(O[C@H]2CCc3ccccc32)c1)C1CCCCC1,0%
5,CNC(=O)[C@H](NC(=O)Cc1cccc(Oc2cnc(Nc3ccccc3)nc2)c1)C1CCCCC1,0%
6,CNC(=O)[C@H](NC(=O)Cc1cccc(O[C@H]2CCc3cc(-c4cnc(Nc5ccccc5)nc4)ccc32)c1)C1CCCCC1,52%
7,NC(=O)[C@H](NC(=O)Cc1cccc(O[C@H]2CCc3cc(-c4ncc(Nc5ccccc5)cn4)ccc32)c1)C1CCCCC1,79%
8,CNC(=O)[C@H](NC(=O)Cc1cccc(O[C@H]2CCc3cc(-c4cncc(Oc5ccccc5)c4)ccc32)c1)C1CCCCC1,0%
